Source: patent publication US20230277125A1, “BREATH-BASED THERAPEUTIC DRUG MONITORING METHOD” (UNIVERSITÄTS-KINDERSPITAL BEIDER BASEL, priority 2020, published 2023)

Tests used:
[1] = Blood-based therapeutic drug monitoring of serum valproate (immunoassay total, GC-MS free); format: in vivo, human
From the text: FIG. 2 presents an analysis pipeline that includes constructing a response vector matrix, splitting the dataset into training and test set, applying feature reduction analysis to […] in order to identify predictors, training mathematical model based on selected predictors, applying selected predictors and mathematical model to the test set to determine the concentration of valproate in a subject, which matches well the serum concentration determined using the blood analysis, as determined in an immunoassay (total valproate concentration) and by GC-MS (free valproate concentration).
The range of pharmacotherapies is described in AED rows. The patients were receiving either a single drug or combinations of up to three drugs. The bottom three rows identify the clinical outcome as described by side effects (mild or severe), drug response (responder or non-responder), and EEG (normal or abnormal). The grey bars on the top show the concentrations (mg/L) of free and total serum VPA (level 0 was assigned to all the measurements of subjects' not taking VPA, missing bars in free VPA represents the unavailability of data). Dark (light) grey bars indicate that the measurements were outside (inside) the therapeutic range (i.e. 50-100 mg/L for total and 5-10 mg/L for free VPA). Thus, for example, patient 20 suffers from DEE. During the first visit (i.e. 20-1), the patient was receiving a combination of LTG, LEV, and VPA. Total serum VPA concentration was 104 mg/L (i.e. beyond the therapeutic range) and free serum VPA could not be measured. At this point in time, the patient had only mild side effects, but was not responding to the medication, and EEG was abnormal. On the second visit, the patient was unable to perform breath test. During the third visit (i.e. 20-3), LEV had been removed, total serum VPA concentration was 108 mg/L and free serum VPA concentration was 12.7 mg/L (both levels above the therapeutic range). Side effects were still mild, EEG was back to normal, but the patient was still not responding to the pharmacotherapy. AED=antiepileptic drugs, EEG=electroencephalography, VPA=valproic acid, LTG=lamotrigine, and LEV=levetiracetam.
59 subjects (32 males and 27 females) between the ages of 4 and 20 (see FIG. 12A for details), undergoing treatment with antiepileptic drugs (AEDs) with the necessity of therapeutic drug monitoring (TDM) were enrolled in the study Immediately after blood drawn for TDM, subjects performed prolonged exhalations directly into SESI-HRMS system, comprising SUPER-SESI ionization device (Fossil Ion Technology, Spain) coupled to a Q Exactive Plus HRMS (Thermo Fisher Scientific, Germany). During the course of study, wherever blood-based TDM were performed, subjects also provided exhalations, leading to multiple measurements from some subjects. In total 75 successful measurements (from 48 subjects) were performed. […] In order to determine the feasibility of TDM of an example drug valproate by using mass spectroscopy of samples of breath exhaled by subjects, the subjects were divided into two groups i.e. valproate users and non-valproate users. […] Moreover, a different relationship between total valproate serum concentration and valproate dose for subjects with mono and multi-therapy compared to that known in the literature (Duran, 1993) was observed (FIG. 12D).

[2] = human, in vivo
From the text: It will be further noted that according to the methods of the present invention it is possible to measure the level of metabolites that belong to different metabolic pathways. Therefore, by measuring the level of said metabolites and comparing them with each other, it is also possible to compare the activities of said different metabolic pathways. […] FIG. 3 presents the time dependence of the relative activity of two oxidation pathways of valproate, β-oxidation that leads to 3-heptanone, and ω1-oxidation that results in 2-propyl-4-pentanolactone. The activities of both oxidation pathways are presented herein as a ratio between the nAUC parameters for m/z peaks due to compounds belonging to each of the pathways, and presented in a logarithmic scale. Both increase of in 2-propyl-4-pentanolactone to 3-heptanone ratio, as well as decrease thereof can be observed over time, and observed ratios span more than 100-fold range. Herein, values of nAUC parameters for the m/z peaks due to both 3-heptanone and 2-propyl-4-pentanolactone (accordingly, peaks at m/z of 115.11176 and 143.10659 in FIG. 14) are predictors for the previously trained mathematical model of the present invention.
FIG. 3 presents the time dependence of the relative activity of two oxidation pathways of valproate, β-oxidation that leads to 3-heptanone, and […] that results in 2-propyl-4-pentanolactone. […]

[3] = human subject; cited from earlier work
[4] = patient 20, third visit (20-3), LEV removed

In the case of `CCCC(CCC)C(=O)O` [VPA, Valproic acid], the “total valproate for a given dose, multi-therapy vs mono-therapy” value ([1]; FIG. 12D) is reported as “lower than those of mono-therapy”, the “relationship between participants' age and serum free valproate fraction” value ([1]; ages 4 to 20, FIG. 12C) is reported as “inversely proportional relationship” and the “total serum VPA concentration” value ([1]; patient 20, first visit (20-1), combination of LTG, LEV and VPA) is reported as 104 mg/L. For the same compound, the “free serum VPA concentration” value [1, 4] was 12.7 mg/L, the “total serum VPA concentration” value [1, 4] was 108 mg/L and the “relationship between serum concentrations of free and total valproate” value ([1]; study participants, FIG. 12B) was “non-linear relationship”. The “span of observed 2-propyl-4-pentanolactone to 3-heptanone ratios” value [2] was “more than 100 fold”, the “fraction directly excreted in urine without chemical modification” value [3] was “Less than three percent” and the “fraction modified with coenzyme A and shuttled to mitochondria (β-oxidation, 3-oxovalproate)” value [3] was 12%. The “fraction oxidised at position 4 (4-hydroxyvalproate)” value [3] was 2.7%, the “fraction oxidised at position 5 (5-hydroxyvalproate)” value [3] was 2.3% and the “fraction undergoing direct glucuronidation” value [3] was 80%.
